Consider one compound from ChEMBL document CHEMBL5113369, “A review on the structure and pharmacological activity of phenylethanoid glycosides” (Eur J Med Chem, 2021).

Common to all, as to assay type: ADME, organism-based, Canis lupus familiaris
Holding throughout (settings): in vivo, dose 10-40 mg/kg

Data set [1] in a line: Tmax in Beagle dog at 10 to 40 mg/kg, po measured up to 8 hrs by LC-MS/MS analysis.
Data set [2] in a line: Oral bioavailability in Beagle dog at 10 to 40 mg/kg measured up to 8 hrs by LC-MS/MS analysis.
Data set [3] can be described thus: Half life in Beagle dog at 10 to 40 mg/kg, po measured up to 8 hrs by LC-MS/MS analysis.

`C[C@@H]1O[C@@H](O[C@@H]2[C@@H](O)[C@H](OCCc3ccc(O)c(O)c3)O[C@H](CO)[C@H]2OC(=O)/C=C/c2ccc(O)c(O)c2)[C@H](O)[C@H](O)[C@H]1O` [ACETOSIDE]: the Tmax in data set [1] was 0.5 h. In data set [2], this compound came in with a bioavailability of 4%. Moreover, the half-life in data set [3] was 1.5 h.

As a reminder, the Tmax is the time from dosing to the highest level. For orientation: bioavailability means the share of a dose that reaches the circulation, judged against a reference dose that is usually intravenous. Higher therefore signals much systemic uptake. By half-life is commonly meant how long it takes for the measured level to halve. Low readings indicate fast loss, high ones slow loss.
